Measurements taken from the NIST ThermoML archive (doi:10.1021/acs.jced.5b00549).
Numbers after ± are expanded uncertainties.

Assay: mn = molality of the nth substance listed, in mol/kg
Settings: 100 kPa, Liquid; for viscosity: Capillary tube (Ostwald / Ubbelohde) method; for speed of sound: Frequency=3 MHz, Sing-around technique in a fixed-path interferometer; for mass density: Vibrating tube method

N[C@@H](Cc1c[nH]cn1)C(=O)O [L-histidine] + O
Settings	mass density [kg/m3]	speed of sound [m/s]	viscosity [mPa·s]
293.15 K, m1 = 0.02	999.369 ± 0.28	1484.4 ± 0.88	1.013 ± 0.021
293.15 K, m1 = 0.04	1000.53 ± 0.28	1486.2 ± 0.88	1.019 ± 0.021
293.15 K, m1 = 0.06	1001.7 ± 0.28	1488 ± 0.88	1.025 ± 0.021
293.15 K, m1 = 0.08	1002.86 ± 0.28	1489.7 ± 0.88	1.03 ± 0.021
293.15 K, m1 = 0.1	1004.03 ± 0.29	1491.5 ± 0.88	1.035 ± 0.021
293.15 K, m1 = 0.12	1005.19 ± 0.29	1493.2 ± 0.88	1.04 ± 0.021
293.15 K, m1 = 0.14	1006.36 ± 0.29	1494.9 ± 0.88	1.045 ± 0.021
293.15 K, m1 = 0.16	1007.53 ± 0.29	1496.6 ± 0.88	1.049 ± 0.021
293.15 K, m1 = 0.18	1008.71 ± 0.29	1498.2 ± 0.88	1.054 ± 0.021
293.15 K, m1 = 0.2	1009.89 ± 0.29	1499.9 ± 0.88	1.058 ± 0.021
298.15 K, m1 = 0.02	998.178 ± 0.29	1498.5 ± 0.93	0.8996 ± 0.021
298.15 K, m1 = 0.04	999.317 ± 0.28	1500.2 ± 0.88	0.9048 ± 0.021
298.15 K, m1 = 0.06	1000.46 ± 0.28	1501.9 ± 0.88	0.9091 ± 0.021
298.15 K, m1 = 0.08	1001.59 ± 0.28	1503.7 ± 0.88	0.9138 ± 0.021
298.15 K, m1 = 0.1	1002.73 ± 0.28	1505.3 ± 0.88	0.9175 ± 0.021
298.15 K, m1 = 0.12	1003.87 ± 0.28	1507 ± 0.88	0.9222 ± 0.021
298.15 K, m1 = 0.14	1005.02 ± 0.28	1508.7 ± 0.9	0.9259 ± 0.021
298.15 K, m1 = 0.16	1006.16 ± 0.28	1510.3 ± 0.88	0.9293 ± 0.021
298.15 K, m1 = 0.18	1007.32 ± 0.28	1512 ± 0.88	0.9336 ± 0.021
298.15 K, m1 = 0.2	1008.47 ± 0.27	1513.6 ± 0.84	0.9374 ± 0.021
303.15 K, m1 = 0.02	996.746 ± 0.29	1510.7 ± 0.93	0.8051 ± 0.021
303.15 K, m1 = 0.04	997.854 ± 0.28	1512.4 ± 0.88	0.8093 ± 0.021
303.15 K, m1 = 0.06	998.962 ± 0.28	1514.1 ± 0.88	0.813 ± 0.021
303.15 K, m1 = 0.08	1000.07 ± 0.28	1515.7 ± 0.88	0.8165 ± 0.021
303.15 K, m1 = 0.1	1001.18 ± 0.28	1517.3 ± 0.88	0.8198 ± 0.021
303.15 K, m1 = 0.12	1002.29 ± 0.28	1519 ± 0.88	0.8233 ± 0.021
303.15 K, m1 = 0.14	1003.39 ± 0.28	1520.5 ± 0.88	0.8265 ± 0.021
303.15 K, m1 = 0.16	1004.5 ± 0.28	1522.2 ± 0.88	0.8301 ± 0.021
303.15 K, m1 = 0.18	1005.61 ± 0.28	1523.7 ± 0.88	0.8339 ± 0.021
303.15 K, m1 = 0.2	1006.72 ± 0.27	1525.3 ± 0.85	0.8372 ± 0.021
308.15 K, m1 = 0.02	995.102 ± 0.28	1521.3 ± 0.92	0.7253 ± 0.021
308.15 K, m1 = 0.04	996.183 ± 0.27	1523 ± 0.88	0.7289 ± 0.021
308.15 K, m1 = 0.06	997.262 ± 0.27	1524.6 ± 0.9	0.732 ± 0.021
308.15 K, m1 = 0.08	998.34 ± 0.27	1526.2 ± 0.88	0.7348 ± 0.021
308.15 K, m1 = 0.1	999.416 ± 0.27	1527.8 ± 0.88	0.7378 ± 0.021
308.15 K, m1 = 0.12	1000.49 ± 0.27	1529.4 ± 0.88	0.7407 ± 0.021
308.15 K, m1 = 0.14	1001.57 ± 0.27	1531 ± 0.88	0.7435 ± 0.021
308.15 K, m1 = 0.16	1002.64 ± 0.27	1532.5 ± 0.88	0.7466 ± 0.021
308.15 K, m1 = 0.18	1003.72 ± 0.27	1534.1 ± 0.88	0.7492 ± 0.021
308.15 K, m1 = 0.2	1004.78 ± 0.26	1535.6 ± 0.8	0.7524 ± 0.021
313.15 K, m1 = 0.02	993.257 ± 0.27	1530.4 ± 0.9	0.6578 ± 0.02
313.15 K, m1 = 0.04	994.314 ± 0.27	1532 ± 0.88	0.6608 ± 0.02
313.15 K, m1 = 0.06	995.368 ± 0.27	1533.5 ± 0.88	0.6633 ± 0.02
313.15 K, m1 = 0.08	996.42 ± 0.27	1535.1 ± 0.88	0.666 ± 0.02
313.15 K, m1 = 0.1	997.47 ± 0.27	1536.7 ± 0.88	0.6682 ± 0.02
313.15 K, m1 = 0.12	998.515 ± 0.27	1538.2 ± 0.88	0.6709 ± 0.02
313.15 K, m1 = 0.14	999.558 ± 0.27	1539.7 ± 0.88	0.6734 ± 0.02
313.15 K, m1 = 0.16	1000.6 ± 0.27	1541.2 ± 0.88	0.6756 ± 0.02
313.15 K, m1 = 0.18	1001.63 ± 0.26	1542.7 ± 0.88	0.6783 ± 0.02
313.15 K, m1 = 0.2	1002.67 ± 0.26	1544.2 ± 0.88	0.681 ± 0.02
